From patent publication US5670501A, “N-substituted 9-alkyladenines” (Discovery Therapeutics, Inc., priority 1994, dated 1997)

Assays:
adenosine A2 receptor = assay: Receptor affinity (radioligand binding), A2, [3H]NECA; design: species or system bovine / guinea pig; settings: room temperature, 1 hour
Description: (§1) 1. Receptor Affinity Experiments (Radioligand Binding)
(§2) Tissues (bovine caudate, guinea pig cortex, guinea pig striatum) were homogenized with a Brinkman polytron and the membranes were collected by centrifugation at 40,000×g at 4° C. for 10 min. The membranes were washed by resuspension and centrifugation, resuspended, and incubated in the presence of 1 U/ml adenosine deaminase for 15-30 min. at 37° C. The membranes were diluted, centrifuged once, and resuspended to a final concentration of 0.5-2 mg protein/ml. Adenosine deaminase (0.1 U/ml) was included in the final resuspension. Assays were initiated by addition of membranes. The compounds of the present invention were subjected to the following experimental conditions: A1 determinations/incubated with [^3 H]CHA at room temperature for 2 hours, A2 determinations/incubated with [^3 H]NECA at room temperature for 1 hour. Assays were terminated by filtration, and the filters were counted in scintillation counters.

adenosine A1 receptor = biological target: T1, adenosine A1 receptor (Bos taurus, UniProt P28190); assay: Receptor affinity (radioligand binding), A1, [3H]CHA; design: species or system bovine; settings: for Ki: [3H]CHA, room temperature, 2 hours, tissues listed: bovine caudate, guinea pig cortex, guinea pig striatum (only Example 13 marked guinea pig); for Selectivity Ratio (A2 Ki /A1 Ki): radioligand binding
T1 construct: were homogenized with a Brinkman polytron and the membranes were collected by centrifugation; from tissue; host or cells: bovine caudate membranes
T1 sequence (P28190 1-326): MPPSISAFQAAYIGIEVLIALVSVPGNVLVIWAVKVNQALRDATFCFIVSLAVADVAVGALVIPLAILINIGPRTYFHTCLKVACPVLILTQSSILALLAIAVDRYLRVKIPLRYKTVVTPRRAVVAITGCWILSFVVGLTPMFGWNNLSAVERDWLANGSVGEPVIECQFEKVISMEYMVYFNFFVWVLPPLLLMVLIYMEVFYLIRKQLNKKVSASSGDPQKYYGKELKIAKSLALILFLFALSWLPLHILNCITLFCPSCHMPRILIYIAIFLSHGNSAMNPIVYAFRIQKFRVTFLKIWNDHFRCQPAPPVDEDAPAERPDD
Description: as §1, §2

| Ki (adenosine A2 receptor) [nM] | Ki (adenosine A1 receptor) [nM] | Selectivity Ratio (A2 Ki /A1 Ki) (adenosine A1 receptor) | SMILES |
| --- | --- | --- | --- |
| > 10000 | 295 | > 34 | CC(C)n1cnc2c(N[C@@H]3C[C@H]4C[C@@H]3C[C@@H]4O)ncnc21 (relative stereo) [Example 46] |
| 436 | 3.72 | 117 | CCN(CC)c1nc2c(NC3CCCC3)ncnc2n1C [Example 14] |
| 35500 | 295 | 120 | Cn1cnc2c(N[C@H]3C[C@H]4C[C@@H]3[C@H](O)C4)ncnc21 (relative stereo) [Example 35] |
| > 10000 | 501 | > 20 | Cn1cnc2c(N[C@@H]3C[C@H]4C[C@@H]3CC4=O)ncnc21 (relative stereo) [Example 29, (±)-N^6-[endo-2'-aminonorbornan-5-one]-9-methyladenine] |
| 11000 | 45.8 | 240 | CCCCN(C)c1nc2c(N[C@H]3C[C@H]4CC[C@@H]3C4)ncnc2n1C (relative stereo) [Example 11] |
| > 10000 | 24 | > 417 | Cn1c(N2CCOCC2)nc2c(N[C@H]3C[C@H]4CC[C@@H]3C4)ncnc21 (relative stereo) [Example 6] |
| > 10000 | 257 | > 39 | CCCn1cnc2c(N[C@@H]3C[C@H]4C[C@@H]3C[C@@H]4O)ncnc21 (relative stereo) [Example 43] |
| > 10000 | 19 | > 526 | Cn1c(N2CCOCC2)nc2c(N[C@H]3C[C@@H]4C[C@H]3C[C@@H]4O)ncnc21 (relative stereo) [Example 25] |
| 6460 | 28.8 | 224 | CCCn1cnc2c(N[C@@H]3C[C@H]4C[C@@H]3C[C@H]4O)ncnc21 (relative stereo) [Example 42] |
| 15100 | 69.2 | 218 | Cn1cnc2c(N[C@H]3C[C@@H]4CC(=O)[C@H]3C4)ncnc21 (relative stereo) [Example 34] |
| 661 | 5.01 | 132 | Cn1c(Br)nc2c(N[C@@H]3C[C@H]4C[C@@H]3C[C@@H]4O)ncnc21 (relative stereo) [Example 27] |
| 4570 | 11.5 | 397 | Cn1cnc2c(N[C@H]3C[C@H]4C[C@@H]3c3ccc(O)cc34)ncnc21 (relative stereo) [Example 37, (±)-N^6-(exo-2'-amino-6'-hydroxybenzonorbornyl)-9-methyladenine] |
| 11500 | 42.7 | 269 | Cn1cnc2c(N[C@H]3C[C@H]4C[C@@H]3CC4=O)ncnc21 (relative stereo) [Example 33] |
| > 10000 | 42 | > 238 | Cn1c(N2CCOCC2)nc2c(NC3CCCC3)ncnc21 [Example 15] |
| 4570 | 8.31 | 550 | CN(C)c1nc2c(N[C@@H]3C[C@@H]4CC(=O)[C@H]3C4)ncnc2n1C (relative stereo) [Example 28] |
| 10000 | 7.94 | 1,259 | Cn1c(N2CCSCC2)nc2c(N[C@H]3C[C@H]4CC[C@@H]3C4)ncnc21 (relative stereo) [Example 9] |
| > 10000 | 19 | > 526 | Cn1c(N2CCCC2)nc2c(N[C@H]3C[C@H]4CC[C@@H]3C4)ncnc21 (relative stereo) [Example 7] |
| > 10000 | 295 | > 34 | CC(C)n1cnc2c(N[C@@H]3C[C@H]4C[C@@H]3C[C@H]4O)ncnc21 (relative stereo) [Example 45] |
| 5750 | 9.55 | 602 | CC(C)Nc1nc2c(N[C@@H]3C[C@H]4C[C@@H]3C[C@H]4O)ncnc2n1C (relative stereo) [Example 26] |
